Results from ChEMBL document CHEMBL4476866, “Pyrrol-1-yl benzoic acid derivatives useful as myc inhibitors” (2015).
Calls of active or inactive are those of the source. No cut-off for these calls is given here.

Tests used:
[1] = test system: MM1.S; experiment: Cytotoxic activity against human MM1S cells assessed as reduction in cell viability incubated for 3 days by ATPlite assay; assay type: functional, cell-based; settings: mm1.s
[2] = target: T1, Myc proto-oncogene protein (Homo sapiens, UniProt P01106); experiment: Inhibition of c-Myc in human NCI-H2171 cells assessed as reduction in c-Myc occupancy at Hnrnpa2b1 binding site at 100 uM incubated for 4 hrs by chromatin immunoprecipitation assay; assay type: cell-based
[3] = target: T1, Myc proto-oncogene protein; experiment: Inhibition of c-Myc in human NCI-H2171 cells assessed as reduction in c-Myc occupancy at Rp123a binding site at 100 uM incubated for 4 hrs by chromatin immunoprecipitation assay; assay type: cell-based
[4] = target: T1, Myc proto-oncogene protein; experiment: Inhibition of c-Myc in human NCI-H2171 cells assessed as reduction in c-Myc occupancy at Npm1 binding site at 100 uM incubated for 4 hrs by chromatin immunoprecipitation assay; assay type: cell-based
[5] = target: T1, Myc proto-oncogene protein; experiment: Inhibition of c-Myc in human NCI-H2171 cells assessed as reduction in c-Myc occupancy at Mat2a binding site at 100 uM incubated for 4 hrs by chromatin immunoprecipitation assay; assay type: cell-based
[6] = test system: NCI-H2171; experiment: Cytotoxic activity against human NCI-H2171 cells assessed as reduction in cell viability incubated for 3 days by ATPlite assay; assay type: functional, cell-based; settings: nci-h2171
[7] = target: T1, Myc proto-oncogene protein; experiment: Inhibition of human c-Myc assessed as reduction in c-Myc/Max/Ebox DNA complex formation using pre-formed complex of c-Myc and biotinylated DNA containing single Ebox-sequence followed by compound addition and further addition of his6-tagged c-Max and incubated for 2 hrs by AlphaScreen assay
[8] = target: Protein max (Homo sapiens) (UniProt P61244); experiment: Inhibition of Max in human NCI-H2171 cells assessed as reduction in Max occupancy at Rp123a binding site at 100 uM incubated for 4 hrs by chromatin immunoprecipitation assay; assay type: cell-based
[9] = test system: NCI-H2171; experiment: Induction of cell differentiation in human NCI-H2171 cells assessed as effect on CD11c expression at 12.5 to 25 uM incubated for 4 days by FACS analysis; assay type: functional, cell-based
[10] = target: Protein max (Homo sapiens) (UniProt P61244); experiment: Inhibition of Max in human NCI-H2171 cells assessed as reduction in Max occupancy at Mat2a binding site at 100 uM incubated for 4 hrs by chromatin immunoprecipitation assay; assay type: cell-based
[11] = test system: NCI-H2171; experiment: Effect on c-Myc protein levels in human NCI-H2171 cells at 100 uM incubated for 4 hrs by […]; assay type: functional, cell-based
[12] = target: T1, Myc proto-oncogene protein; experiment: Inhibition of human his6-tagged c-Myc assessed as reduction in c-Myc/Max/Ebox DNA complex formation by gel shift based orthogonal biochemical assay
[13] = target: Protein max (Homo sapiens) (UniProt P61244); experiment: Inhibition of Max in human NCI-H2171 cells assessed as reduction in Max occupancy at Npm1 binding site at 100 uM incubated for 4 hrs by chromatin immunoprecipitation assay; assay type: cell-based
[14] = test system: NCI-H2171; experiment: Induction of cell differentiation in human NCI-H2171 cells assessed as effect on CD11c gene expression at 12.5 to 25 uM incubated for 4 days by qRT-PCR analysis; assay type: functional, cell-based
[15] = test system: NCI-H2171; experiment: Induction of cell differentiation in human NCI-H2171 cells assessed as effect on CCl4 gene expression at 12.5 to 25 uM incubated for 4 days by qRT-PCR analysis; assay type: functional, cell-based
[16] = target: Protein max (Homo sapiens) (UniProt P61244); experiment: Inhibition of Max in human NCI-H2171 cells assessed as reduction in Max occupancy at Hnrnpa2b1 binding site at 100 uM incubated for 4 hrs by chromatin immunoprecipitation assay; assay type: cell-based
[17] = test system: NCI-H2171; experiment: Induction of cell differentiation in human NCI-H2171 cells assessed as effect on CD14 gene expression at 12.5 to 25 uM incubated for 4 days by qRT-PCR analysis; assay type: functional, cell-based
[18] = Induction of Ebox DNA (unknown origin) intercalation assessed as reduction in c-Myc/Max/Ebox DNA complex formation at 1.7 to 15 uM by gel shift based orthogonal biochemical assay
[19] = Induction of Ebox DNA (unknown origin) intercalation assessed as reduction in Max/Max/Ebox DNA complex formation at 1.7 to 15 uM by gel shift based orthogonal biochemical assay
[20] = Induction of Ebox DNA (unknown origin) intercalation assessed as reduction in MITF/MITF/Ebox DNA complex formation at 1.7 to 15 uM by gel shift based orthogonal biochemical assay

Sequence of Protein max (Homo sapiens) (P61244 whole entry): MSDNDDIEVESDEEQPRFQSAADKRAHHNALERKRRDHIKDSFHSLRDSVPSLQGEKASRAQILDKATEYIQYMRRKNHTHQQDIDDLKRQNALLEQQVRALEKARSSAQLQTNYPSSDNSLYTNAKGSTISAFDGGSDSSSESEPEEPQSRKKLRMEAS
T1 sequence (P01106 whole entry): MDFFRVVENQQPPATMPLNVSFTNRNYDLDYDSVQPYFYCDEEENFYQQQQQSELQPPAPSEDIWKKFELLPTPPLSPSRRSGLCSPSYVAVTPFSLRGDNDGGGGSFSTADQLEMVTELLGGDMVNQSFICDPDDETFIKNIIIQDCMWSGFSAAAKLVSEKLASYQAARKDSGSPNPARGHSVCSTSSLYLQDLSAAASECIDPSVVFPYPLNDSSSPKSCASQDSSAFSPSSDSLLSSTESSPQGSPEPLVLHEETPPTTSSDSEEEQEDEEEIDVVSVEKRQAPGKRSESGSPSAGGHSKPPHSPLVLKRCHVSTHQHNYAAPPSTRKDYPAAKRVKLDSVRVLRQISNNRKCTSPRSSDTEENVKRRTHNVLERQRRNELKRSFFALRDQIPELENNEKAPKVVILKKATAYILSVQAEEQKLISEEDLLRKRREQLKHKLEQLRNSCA

| SMILES | EC50 [1] | EC50 [6] | also measured |
| --- | --- | --- | --- |
| Cc1cc(C(=O)O)ccc1-n1c(C)ccc1C | Not Active |  |  |
| O=C(O)c1ccccc1-n1cccc1 |  |  | inhibition [2]: inactive; inhibition [3]: inactive; inhibition [4]: inactive; inhibition [5]: inactive |
| Cc1ccc(C)n1-c1cc(C(=O)N/N=C\c2ccc(S(=O)(=O)O)cc2)ccc1C(=O)O | Not Active |  |  |
| Cc1ccc(C)n1-c1cc(C(=O)N/N=C\c2ccc(O)c(F)c2)ccc1C(=O)O | Not Active | Not Active |  |
| Cc1ccc(C)n1-c1cc(C(=O)N/N=C\c2cc(F)c(C(=O)O)c(F)c2)ccc1C(=O)O | Not Active | Not Active |  |
| Cc1ccc(C)n1-c1cc(C(=O)NCCc2cccc(C(=O)O)c2)ccc1C(=O)O |  |  | IC50 ([7]; read-out: IC50): 7.27 µM |
| Cc1ccc(C)n1-c1cc(C(=O)N/N=C/c2ccc3nccnc3c2)ccc1C(=O)O | Not Active | Not Active |  |
| Cc1cc(C(=O)N/N=C/c2ccccc2)c(C)n1-c1ccccc1C(=O)O | Not Active | Not Active |  |
| Cc1ccc(C)n1-c1cc(C(=O)N/N=C\c2cccc(C(=O)O)c2)ccc1C(=O)O | Not Active | Not Active |  |
| Cc1ncc(CO)c(/C=N/NC(=O)c2ccc(C(=O)O)c(-n3c(C)ccc3C)c2)c1O | Not Active |  |  |
| O=C(O)c1ccccc1-n1c2ccccc2c2ccccc21 |  |  | IC50 [7]: Not Active |
| Cc1ccc(C)n1-c1cc(C(=O)N/N=C/c2cccc3ncccc23)ccc1C(=O)O | Not Active |  |  |
| CC(=O)OCOC(=O)c1ccccc1N1CCN(C)CC1 |  |  | IC50 [7]: Not Active |
| Cc1ccc(C)n1-c1cccc(C(=O)c2ccccc2)c1C(=O)O | Not Active |  |  |
| Cc1cc(C)c2c(=O)c(/C=N/NC(=O)c3ccc(C(=O)O)c(-n4c(C)ccc4C)c3)coc2c1 |  | Not Active |  |
| Cc1ccc(C)n1-c1cc(C(=O)N/N=C/c2ccc(C(=O)O)o2)ccc1C(=O)O | Not Active | Not Active |  |

| SMILES | EC50 [1] | EC50 [6] | also measured |
| --- | --- | --- | --- |
| Cc1ccc(C)n1-c1cc(C(=O)N/N=C/c2cc(C(=O)O)ccc2F)ccc1C(=O)O |  | Not Active |  |
| COc1ncc(/C=N/NC(=O)c2ccc(C(=O)O)c(-n3c(C)ccc3C)c2)c(OC)n1 | Not Active |  |  |
| Cc1ccc(C)n1-c1cc(C(=O)N/N=C/c2cccc(C(=O)O)c2)ccc1C(=O)O | Not Active | Not Active |  |
| Cc1ccc(C)n1-c1cc(C(=O)N/N=C/c2cc(F)c(F)c(F)c2)ccc1C(=O)O | Not Active |  |  |
| Cc1ccc(C)n1-c1ccccc1C(=O)O |  |  | inhibition [8]: inactive; Activity [9]: Active; inhibition [2]: Active; inhibition [10]: inactive; inhibition [11]: inactive; inhibition [12]: Dose-dependent effect; inhibition [13]: inactive; inhibition [3]: Active; inhibition [4]: Active; Activity [14]: Active; inhibition [5]: Active; Activity [15]: Active; inhibition [16]: inactive; Activity [17]: Active |
| COc1ccc(/C=N/NC(=O)c2ccc(C(=O)O)c(-n3c(C)ccc3C)c2)c(OC)c1 | Not Active |  |  |
| CC(=O)OCOC(=O)c1ccc(C(=O)N/N=C/c2c[nH]cn2)cc1-n1c(C)ccc1C | Not Active |  |  |
| CN(C)c1ccc(/N=N/c2ccccc2C(=O)O)cc1 | Not Active |  |  |
| COc1cccc2c1C(=O)c1c(O)c3c(c(O)c1C2=O)C[C@@](O)(C(=O)CO)C[C@@H]3O[C@H]1C[C@H](N)[C@H](O)[C@H](C)O1 |  |  | Activity [18]: Active; Activity [19]: Active; Activity [20]: Active |
| Cc1ccc(C)n1-c1ccc(Cl)cc1C(=O)O | Not Active |  |  |
| Cc1ccc(C)n1-c1cc(C(=O)N/N=C/c2c[nH]c3ccc(F)cc23)ccc1C(=O)O | Not Active | Not Active |  |
| Cc1ccc(C)n1-c1c(C(=O)O)cccc1[N+](=O)[O-] |  |  | IC50 [7]: Not Active |
| Cc1ccc(C)n1-c1cc(C(=O)N/N=C/c2cccnc2)ccc1C(=O)O |  | Not Active |  |
| Cc1ccc(C)n1-c1cc(C(=O)N/N=C/c2cccc(B(O)O)c2)ccc1C(=O)O | Not Active | Not Active |  |
| COC(=O)c1ccc(-n2cccc2)cc1O |  |  | IC50 [7]: Not Active |
